Experimental data published in patent US7964594B1, “Amino oxazine derivatives” (Hoffmann-La Roche Inc., priority 2009, dated 2011).

Target: T1, BACE2 (Rattus norvegicus, UniProt Q6IE75)
T1 construct: endogenous cellular BACE2 in the Ins1e rat cell line; endogenous in cells; host or cells: INS-TMEM27 (INS1e-derived rat insulinoma cell line with doxycycline-inducible full-length hTMEM27)
T1 sequence (Q6IE75 63-514): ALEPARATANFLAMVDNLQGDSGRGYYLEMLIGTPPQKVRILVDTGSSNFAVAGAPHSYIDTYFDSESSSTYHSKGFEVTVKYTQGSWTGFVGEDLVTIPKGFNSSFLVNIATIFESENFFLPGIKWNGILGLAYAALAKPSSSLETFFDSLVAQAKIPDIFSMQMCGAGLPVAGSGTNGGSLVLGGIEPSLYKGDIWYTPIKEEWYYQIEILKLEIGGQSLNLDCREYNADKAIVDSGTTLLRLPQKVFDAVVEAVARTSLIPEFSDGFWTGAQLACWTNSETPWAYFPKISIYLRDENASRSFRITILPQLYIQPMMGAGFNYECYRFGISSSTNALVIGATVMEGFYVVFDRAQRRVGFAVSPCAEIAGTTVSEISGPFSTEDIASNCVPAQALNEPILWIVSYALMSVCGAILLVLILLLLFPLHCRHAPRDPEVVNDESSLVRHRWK
Assay: Assay for BACE inhibition by measuring cellular TMEM27 cleavage (INS-TMEM27 cells, ELISA of shed TMEM27)
Assay type: cell-based
Conditions: inhibition of human TMEM27 cleavage by endogenous cellular BACE2 in Ins1e rat cell line; ELISA of culture medium
Source text: Assay for BACE Inhibition by Measuring Cellular TMEM27 Cleavage
The assay uses the principle of inhibition of human TMEM27 cleavage by endogenous cellular BACE2 in the Ins1e rat cell line and shedding from the cell surface into the culture medium, followed by detection in an ELISA assay. Inhibition of BACE2 prevents the cleavage and shedding in a dose-dependent manner.
The stable cell line “INS-TMEM27” represents an INS1e-derived cell line with inducible expression (using the TetOn system) of full-length hTMEM27 in a doxycycline-dependent manner. The cells were cultured throughout the experiment in RPMI1640+Glutamax (Invitrogen) Penicillin/Streptomycin, 10% Fetal bovine serum, […], […], 100 micrograms/ml G418 and 100 microgram/ml hygromycin and were grown in adherent culture at 37° C. in a standard CO2 cell culture incubator.
INS-TMEM27 cells were seeded in 96-well plates. After 2 days in culture, BACE2 inhibitor was added in a range of concentrations as required by the assay and after a further two hours, doxycycline was added to a final concentration of 500 ng/ml. The cells were incubated for a further 46 hours and the supernatant harvested for detection of shed TMEM27.
An ELISA assay (using a pair of mouse anti-human-TMEM27 antibodies, raised against the extracellular domain of TMEM27) was used for detection of TMEM27 in the culture medium. An IC50 for BACE2 inhibition was calculated using the ELISA readout for each inhibitor concentration with standard curve-fitting software XLfit (IDBS) for the Excel spreadsheet program.

SMILES | IC50 [nM]
C[C@]1(c2cc(NC(=O)C3CC3(F)F)ccc2F)N=C(N)OCC12CC2 (mixture of isomers) [Example 55, N-(3-((S)-6-Amino-8-methyl-5-oxa-7-azaspiro[2.5]oct-6-en-8-yl)-4-fluorophenyl)-2,2-difluorocyclopropanecarboxamide] | 2100
C[C@@]1(c2cc(NC(=O)c3ccc(Cl)cn3)ccc2F)CCOC(N)=N1 [Example 2, 5-Chloro-pyridine-2-carboxylic acid [3-((S)-2-amino-4-methyl-5,6-dihydro-4H-[1,3]oxazin-4-yl)-4-fluoro-phenyl]-amide] | 10
C[C@@]1(c2cc(NC(=O)c3ccccn3)ccc2F)CCOC(N)=N1 [Example 4, Pyridine-2-carboxylic acid [3-((S)-2-amino-4-methyl-5,6-dihydro-4H-[1,3]oxazin-4-yl)-4-fluoro-phenyl]-amide] | 230
C[C@@]1(c2cc(NC(=O)c3ccc(C(F)(F)F)cn3)ccc2F)CCOC(N)=N1 [Example 5, 5-Trifluoromethyl-pyridine-2-carboxylic acid [3-((S)-2-amino-4-methyl-5,6-dihydro-4H-[1,3]oxazin-4-yl)-4-fluoro-phenyl]-amide] | 89
C[C@@]1(c2cc(NC(=O)c3ncccc3F)ccc2F)CCOC(N)=N1 [Example 6, 3-Fluoro-pyridine-2-carboxylic acid [3-((S)-2-amino-4-methyl-5,6-dihydro-4H-[1,3]oxazin-4-yl)-4-fluoro-phenyl]-amide] | 19
C[C@@]1(c2cc(NC(=O)c3ccc(F)s3)ccc2F)CCOC(N)=N1 [Example 7, 5-Fluoro-thiophene-2-carboxylic acid [3-((S)-2-amino-4-methyl-5,6-dihydro-4H-[1,3]oxazin-4-yl)-4-fluoro-phenyl]-amide] | 340
Cc1nc(C(=O)Nc2ccc(F)c([C@]3(C)CCOC(N)=N3)c2)co1 [Example 8] | 19
C[C@@]1(c2cc(NC(=O)c3cc(Cl)ccn3)ccc2F)CCOC(N)=N1 [Example 9] | 143
C[C@@]1(c2cc(NC(=O)c3ccc(Cl)s3)ccc2F)CCOC(N)=N1 [Example 10, 5-Chloro-thiophene-2-carboxylic acid [3-((S)-2-amino-4-methyl-5,6-dihydro-4H-[1,3]oxazin-4-yl)-4-fluoro-phenyl]-amide] | 915
C[C@@]1(c2cc(NC(=O)c3nccc4ccsc34)ccc2F)CCOC(N)=N1 [Example 11, Thieno[2,3-c]pyridine-7-carboxylic acid [3-((S)-2-amino-4-methyl-5,6-dihydro-4H-[1,3]oxazin-4-yl)-4-fluoro-phenyl]-amide] | 28
C[C@@]1(c2cc(NC(=O)c3ncccc3-c3ccccc3)ccc2F)CCOC(N)=N1 [Example 12, 3-Phenyl-pyridine-2-carboxylic acid [3-((S)-2-amino-4-methyl-5,6-dihydro-4H-[1,3]oxazin-4-yl)-4-fluoro-phenyl]-amide] | 34
C[C@@]1(c2cc(NC(=O)c3cc4ccccc4s3)ccc2F)CCOC(N)=N1 [Example 13, Benzo[b]thiophene-2-carboxylic acid [3-((S)-2-amino-4-methyl-5,6-dihydro-4H-[1,3]oxazin-4-yl)-4-fluoro-phenyl]-amide] | 52
C[C@@]1(c2cc(NC(=O)c3cnc(Cl)cn3)ccc2F)CCOC(N)=N1 [Example 14] | 190
C[C@@]1(c2cc(NC(=O)c3ncccc3C(F)(F)F)ccc2F)CCOC(N)=N1 [Example 16, 3-Trifluoromethyl-pyridine-2-carboxylic acid [3-((S)-2-amino-4-methyl-5,6-dihydro-4H-[1,3]oxazin-4-yl)-4-fluoro-phenyl]-amide] | 22
Cc1ccc(C(=O)Nc2ccc(F)c([C@]3(C)CCOC(N)=N3)c2)s1 [Example 17, 5-Methyl-thiophene-2-carboxylic acid [3-((S)-2-amino-4-methyl-5,6-dihydro-4H-[1,3]oxazin-4-yl)-4-fluoro-phenyl]-amide] | 11
CC[C@@]1(c2cc(NC(=O)c3ccccn3)ccc2F)CCOC(N)=N1 [Example 18, Pyridine-2-carboxylic acid [3-((S)-2-amino-4-ethyl-5,6-dihydro-4H-[1,3]oxazin-4-yl)-4-fluoro-phenyl]-amide] | 35
CC[C@@]1(c2cc(NC(=O)c3ccc(C)s3)ccc2F)CCOC(N)=N1 [Example 20] | 48
CC[C@@]1(c2cc(NC(=O)c3ccc(Cl)s3)ccc2F)CCOC(N)=N1 [Example 21] | 240
CC[C@@]1(c2cc(NC(=O)c3ncc(Cl)cc3C)ccc2F)CCOC(N)=N1 [Example 23] | 9
COc1cccnc1C(=O)Nc1ccc(F)c([C@]2(C)CCOC(N)=N2)c1 [Example 27, 3-Methoxy-pyridine-2-carboxylic acid [3-((S)-2-amino-4-methyl-5,6-dihydro-4H-[1,3]oxazin-4-yl)-4-fluoro-phenyl]-amide] | 23
COc1ccc(C(=O)Nc2ccc(F)c([C@]3(C)CCOC(N)=N3)c2)nc1 [Example 30, 5-Methoxy-pyridine-2-carboxylic acid [3-((S)-2-amino-4-methyl-5,6-dihydro-4H-[1,3]oxazin-4-yl)-4-fluoro-phenyl]-amide] | 12
C[C@@]1(c2cc(NC(=O)c3ncc(C(F)(F)F)cc3Cl)ccc2F)CCOC(N)=N1 [Example 31, 3-Chloro-5-trifluoromethyl-pyridine-2-carboxylic acid [3-((S)-2-amino-4-methyl-5,6-dihydro-4H-[1,3]oxazin-4-yl)-4-fluoro-phenyl]-amide] | 11
Cc1ccsc1C(=O)Nc1ccc(F)c([C@]2(C)CCOC(N)=N2)c1 [Example 34] | 350
C[C@@]1(c2cc(NC(=O)c3ncc(F)cc3Cl)ccc2F)CCOC(N)=N1 [Example 35] | 11
C[C@]1(c2cc(NC(=O)c3ccc(Cl)cn3)ccc2F)N=C(N)OCC12CC2 [Example 36, 5-Chloro-pyridine-2-carboxylic acid [3-((S)-6-amino-8-methyl-5-oxa-7-aza-spiro[2.5]oct-6-en-8-yl)-4-fluoro-phenyl]-amide] | 16

These reach a lower IC50. Values come first.

IC50 [nM] | SMILES
4 | C[C@@]1(c2cc(NC(=O)c3ncc(Cl)cc3Cl)ccc2F)CCOC(N)=N1 [Example 1, 3,5-Dichloro-pyridine-2-carboxylic acid [3-((S)-2-amino-4-methyl-5,6-dihydro-4H-[1,3]oxazin-4-yl)-4-fluoro-phenyl]-amide]
6 | C[C@@]1(c2cc(NC(=O)c3ccc(F)cn3)ccc2F)CCOC(N)=N1 [Example 3, 5-Fluoro-pyridine-2-carboxylic acid [3-((S)-2-amino-4-methyl-5,6-dihydro-4H-[1,3]oxazin-4-yl)-4-fluoro-phenyl]-amide]
4.5 | Cc1ccc(C(=O)Nc2ccc(F)c([C@]3(C)CCOC(N)=N3)c2)nc1 [Example 15]
8 | CC[C@@]1(c2cc(NC(=O)c3ccc(Cl)cn3)ccc2F)CCOC(N)=N1 [Example 19, 5-Chloro-pyridine-2-carboxylic acid [3-((S)-2-amino-4-ethyl-5,6-dihydro-4H-[1,3]oxazin-4-yl)-4-fluoro-phenyl]-amide]
7 | CC[C@@]1(c2cc(NC(=O)c3ncc(Cl)cc3Cl)ccc2F)CCOC(N)=N1 [Example 22]
1 | CC[C@@]1(c2cc(NC(=O)c3coc(C)n3)ccc2F)CCOC(N)=N1 [Example 24]
1 | Cc1cc(Cl)cnc1C(=O)Nc1ccc(F)c([C@]2(C)CCOC(N)=N2)c1 [Example 26, 5-Chloro-3-methyl-pyridine-2-carboxylic acid [3-((S)-2-amino-4-methyl-5,6-dihydro-4H-[1,3]oxazin-4-yl)-4-fluoro-phenyl]-amide]
4 | Cc1nc(C(=O)Nc2ccc(F)c([C@]3(C)CCOC(N)=N3)c2)cs1 [Example 28]
3 | Cn1ccc(C(=O)Nc2ccc(F)c([C@]3(C)CCOC(N)=N3)c2)n1 [Example 29]
4 | C[C@@]1(c2cc(NC(=O)c3cccc(Cl)n3)ccc2F)CCOC(N)=N1 [Example 32, 6-Chloro-pyridine-2-carboxylic acid [3-((S)-2-amino-4-methyl-5,6-dihydro-4H-[1,3]oxazin-4-yl)-4-fluoro-phenyl]-amide]
7 | C[C@@]1(c2cc(NC(=O)c3ncc(F)cc3F)ccc2F)CCOC(N)=N1 [Example 33, 3,5-Difluoro-pyridine-2-carboxylic acid [3-((S)-2-amino-4-methyl-5,6-dihydro-4H-[1,3]oxazin-4-yl)-4-fluoro-phenyl]-amide]
